In general, IC50 refers to the point on the concentration scale where inhibition reaches its midpoint.

Experiment [1] has as its target T1, potassium ion channel hERG (human Ether-á-go-go-Related Gene) (Homo sapiens, UniProt Q12809).
T1 construct: expressed in transfected cells; host or cells: Chinese hamster ovary K1 (CHO)
The experiment can be described thus: Assay 5 - hERG assay (SyncroPatch 384PE patch clamp, CHO cells). Conditions: geometric mean, CHO cells over-expressing hERG, read-out: Assay 5 (hERG Hu CHO IF EPh CR-Syncro) GMean IC50. The experiment is classed as cell-based. As for the experimental part:
Assay 5—hERG Assay (Human Ether-á-go-go-Related Gene)
This assay (human Ether-á-go-go-Related Gene) measures activity of the compounds at the potassium ion channel hERG (human Ether-á-go-go-Related Gene).
Experiments were performed on the SyncroPatch 384PE high throughput patch clamp platform at room temperature and medium resistance chips with 4 patch holes per site. Chinese hamster ovary K1 (CHO) cell lines over-expressing the ion channel of choice (hERG) were used in assay-ready format and kept in liquid nitrogen or were used from live culture. Cells were either thawed and diluted in HBSS or were detached from flasks and resuspended in HBSS. HBSS comprised 140 mM NaCl, 4 mM KCl, 10 mM HEPES and 5 mM Glucose (pH 7.4). The internal patch clamp solution was KF 120 mM, KCl 20 mM, HEPES 10 mM, EGTA 10 mM, and 25 μM Escin (pH 7.2). After the sealing process was complete, the external solution was exchanged for external patch clamp solution comprising NaCl 80 mM, KCl 4 mM, HEPES 10 mM, CaCl2 2 mM, MgCl2 1 mM, glucose 5 mM, and NMDG 60 mM (pH 7.4). All solutions were stored at room temperature, except Escin, which was stored at 4° C. All test compounds were dispensed in greiner-bio 384 well plates and tested in a 6 point cumulative assay (final DMSO concentration 0.33%). Only wells that passed previously agreed acceptance criteria for this platform were used in this analysis (30 MegaOhm seal resistance, Z prime>0.4 and current size>0.2 nA).
A general note: hERG is a cardiac potassium channel; its block is linked to QT prolongation.

Experiment [2] has as its target GSK3b (Glycogen synthase kinase-3 beta) (Homo sapiens, UniProt P49841). The experiment can be described thus: Assay 6 - GSK3b assay (ThermoFisher, FRET Z-Lyte). It counts as biochemical. Conditions: geometric mean; ATP Conc: 10.000 μM; read-out: Assay 6 (GSK3B FRET-Z-Lyte CR) GMean IC50 (μM) ATP Conc: 10.000. The procedure:
This assay measures the activity of the compounds at GSK3b (Glycogen synthase kinase-3 beta).
The test compounds were screened in 1% DMSO (final) in the well. For 10-point titrations, 3-fold serial dilutions are conducted from the starting concentration of 10 μM.
• Bar-coded Corning, low volume NBS, black 384-well plate • 1. 2.5 μL—4× Test Compound or 100 nL 100× plus 2.4 μL kinase buffer • 2. 5 μL—2× Peptide/Kinase Mixture • 3. 2.5 μL—4× ATP Solution • 4. 30-second plate shake • 5. 60-minute Kinase Reaction incubation at room temperature • 6. 5 μL—Development Reagent Solution • 7. 30-second plate shake • 8. 60-minute Development Reaction incubation at room temperature • 9. Read on fluorescence plate reader and analyse the data
In step 2, the 2× GSK3β (GSK3 beta)/Ser/Thr (Glycogen synthase kinase-3 beta/Serine/Threonine) 09 mixture is prepared in 50 mM HEPES (4-(2-hydroxyethyl)-1-piperazineethanesulfonic acid) pH 7.5, 0.01% BRIJ-35, 10 mM MgCl2, 1 mM EGTA (egtazic acid). The final 10 μL Kinase Reaction consists of 0.22-0.92 ng GSK3β (GSK3 beta) and 2 μM Ser/Thr 09 in 50 mM HEPES pH 7.5, 0.01% BRIJ-35, 10 mM MgCl2, 1 mM EGTA.
In step 3 the ATP Solution is diluted to a 4× working concentration in Kinase Buffer (50 mM HEPES pH 7.5, 0.01% BRIJ-35, 10 mM MgCl2, 1 mM EGTA).
In Step 6 the Development Reagent is diluted 1:512 in Development Buffer (10× Novel PKC Lipid Mix: 2 mg/mL Phosphatidyl Serine, 0.2 mg/mL DAG in 20 mM HEPES, pH 7.4, 0.3% CHAPS).
SelectScreen® Kinase Profiling Service uses XLfit from IDBS. The dose response curve is curve fit to model number 205 (sigmoidal dose-response model).

Another experiment addresses PCSK9 (Homo sapiens, UniProt Q8NBP7, G670E/V474I). The experiment can be described thus: biochemical.

Sequence of GSK3b (Glycogen synthase kinase-3 beta) (P49841 whole entry): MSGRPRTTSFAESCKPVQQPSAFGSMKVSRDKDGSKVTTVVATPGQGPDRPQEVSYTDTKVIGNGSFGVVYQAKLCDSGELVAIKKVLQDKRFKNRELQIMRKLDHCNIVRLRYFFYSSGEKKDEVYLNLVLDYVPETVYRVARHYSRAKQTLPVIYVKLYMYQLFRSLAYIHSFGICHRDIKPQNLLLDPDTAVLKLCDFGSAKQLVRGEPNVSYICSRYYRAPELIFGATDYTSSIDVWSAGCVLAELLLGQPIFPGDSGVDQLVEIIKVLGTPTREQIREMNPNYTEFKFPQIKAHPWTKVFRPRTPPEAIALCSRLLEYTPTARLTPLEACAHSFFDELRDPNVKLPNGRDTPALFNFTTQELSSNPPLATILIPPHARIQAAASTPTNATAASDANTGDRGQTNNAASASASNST
T1 sequence (Q12809 whole entry): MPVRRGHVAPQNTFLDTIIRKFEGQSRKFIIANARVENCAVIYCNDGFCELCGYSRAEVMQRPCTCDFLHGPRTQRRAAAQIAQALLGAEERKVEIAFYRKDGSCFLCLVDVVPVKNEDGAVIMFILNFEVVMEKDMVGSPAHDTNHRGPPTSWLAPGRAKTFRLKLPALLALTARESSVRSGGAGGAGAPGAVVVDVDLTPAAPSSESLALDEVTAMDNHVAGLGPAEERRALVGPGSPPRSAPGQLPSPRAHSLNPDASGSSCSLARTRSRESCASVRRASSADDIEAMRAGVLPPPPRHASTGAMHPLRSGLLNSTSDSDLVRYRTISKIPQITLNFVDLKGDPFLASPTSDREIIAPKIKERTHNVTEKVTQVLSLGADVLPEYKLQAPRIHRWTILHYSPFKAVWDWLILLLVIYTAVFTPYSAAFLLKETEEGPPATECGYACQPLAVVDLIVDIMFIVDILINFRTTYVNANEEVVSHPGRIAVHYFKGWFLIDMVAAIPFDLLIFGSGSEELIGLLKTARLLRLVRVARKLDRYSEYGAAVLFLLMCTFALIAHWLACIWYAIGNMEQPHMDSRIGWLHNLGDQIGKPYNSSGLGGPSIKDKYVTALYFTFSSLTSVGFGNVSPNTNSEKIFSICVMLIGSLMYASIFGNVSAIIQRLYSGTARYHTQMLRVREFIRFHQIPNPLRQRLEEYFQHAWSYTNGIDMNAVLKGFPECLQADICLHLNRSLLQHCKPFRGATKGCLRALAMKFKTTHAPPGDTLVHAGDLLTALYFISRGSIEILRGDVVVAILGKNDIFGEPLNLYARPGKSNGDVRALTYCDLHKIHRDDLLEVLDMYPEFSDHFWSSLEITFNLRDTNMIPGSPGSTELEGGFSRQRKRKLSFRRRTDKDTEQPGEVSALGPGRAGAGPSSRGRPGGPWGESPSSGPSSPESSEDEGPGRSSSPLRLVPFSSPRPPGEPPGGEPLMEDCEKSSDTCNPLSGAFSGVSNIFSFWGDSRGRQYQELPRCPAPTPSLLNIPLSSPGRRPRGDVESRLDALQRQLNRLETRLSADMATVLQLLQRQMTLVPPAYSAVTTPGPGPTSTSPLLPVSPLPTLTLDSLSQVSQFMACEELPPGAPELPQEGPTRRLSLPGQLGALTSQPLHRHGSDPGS
Sequence of PCSK9 (Q8NBP7 with tags, fused parts or gaps V474I/G670E): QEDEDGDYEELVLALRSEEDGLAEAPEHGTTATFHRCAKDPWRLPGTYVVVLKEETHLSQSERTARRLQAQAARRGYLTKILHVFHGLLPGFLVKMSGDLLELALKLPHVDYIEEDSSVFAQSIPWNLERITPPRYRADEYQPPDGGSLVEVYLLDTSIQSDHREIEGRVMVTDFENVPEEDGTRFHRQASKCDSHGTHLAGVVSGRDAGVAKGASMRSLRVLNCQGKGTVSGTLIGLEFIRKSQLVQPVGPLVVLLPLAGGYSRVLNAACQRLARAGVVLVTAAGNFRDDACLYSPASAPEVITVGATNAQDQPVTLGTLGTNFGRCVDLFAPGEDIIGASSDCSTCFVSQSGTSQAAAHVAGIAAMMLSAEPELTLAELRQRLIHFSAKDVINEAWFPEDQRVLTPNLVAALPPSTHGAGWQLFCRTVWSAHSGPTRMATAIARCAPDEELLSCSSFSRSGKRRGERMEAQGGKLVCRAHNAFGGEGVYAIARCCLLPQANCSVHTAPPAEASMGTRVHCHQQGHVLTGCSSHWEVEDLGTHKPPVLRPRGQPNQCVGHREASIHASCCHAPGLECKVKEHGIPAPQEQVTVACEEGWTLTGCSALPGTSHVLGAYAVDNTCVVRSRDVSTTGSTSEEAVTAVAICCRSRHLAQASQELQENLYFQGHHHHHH

Turning to `Cc1ccc2nc(N[C@H]3CC[C@H](Nc4ccc(-n5ccccc5=O)cn4)C3)oc2c1` [Example 2, 6′-(((1S,3S)-3-((6-Methylbenzo[d]oxazol-2-yl)amino)cyclopentyl)amino)-2H-[1,3′-bipyridin]-2-one], the results for the half-maximal inhibitory concentration (IC50) (in experiment [1]; in experiment [2]; against PCSK9) were 13200 nM, over 10 µM and 11.8 nM, respectively.
For `O=c1ccccn1-c1ccc(N[C@H]2CC[C@H](Nc3nc4ccccc4s3)C2)nc1` [Example 7, 6′-(((1S,3S)-3-(Benzo[d]thiazol-2-ylamino)cyclopentyl)amino)-2H-[1,3′-bipyridin]-2-one] the same measures were 12600 nM, over 10 µM and 324 nM.
The matching figures for `N#Cc1ccc(=O)n(-c2ccc(N[C@H]3CC[C@H](Nc4nc5cccnc5o4)C3)nc2)c1` [Example 17, 6′-(((1S,3S)-3-(Oxazolo[5,4-b]pyridin-2-ylamino)cyclopentyl)amino)-2-oxo-2H-[1,3′-bipyridine]-5-carbonitrile]: over 40100 nM, over 10 µM and 30.5 nM.
The matching figures for `N#Cc1ccc2sc(N[C@H]3CC[C@H](Nc4ccc(-n5ccccc5=O)cn4)C3)nc2c1` [Example 9, 2-(((1S,3S)-3-((2-Oxo-2H-[1,3′-bipyridin]-6′-yl)amino)cyclopentyl)amino)benzo[d]thiazole-5-carbonitrile]: 3560 nM, 1.51 µM and 17.9 nM.
`Cn1cccc(-c2cnc(N[C@H]3CC[C@H](Nc4nc5cccnc5[nH]4)C3)cn2)c1=O` [Example 75, 3-(5-(((1S,3S)-3-((3H-Imidazo[4,5-b]pyridin-2-yl)amino)cyclopentyl)amino)pyrazin-2-yl)-1-methylpyridin-2(1H)-one]: the half-inhibitory concentration (IC50) in experiment [1] is over 40000 nM; in experiment [2], over 10 µM; against PCSK9, 16.8 nM.
For `Cc1ccc2nc(N[C@H]3CC[C@H](Nc4ccc(-n5ccccc5=O)cn4)C3)sc2c1` [Example 8, 6′-(((1S,3S)-3-((6-Methylbenzo[d]thiazol-2-yl)amino)cyclopentyl)amino)-2H-[1,3′-bipyridin]-2-one] the same measures were 6320 nM, over 10 µM and 2080 nM.
For `O=C1CN(c2ccc(N[C@H]3CC[C@H](Nc4nc5cccnc5[nH]4)C3)nc2)C(=O)N1` [Example 65, 1-(6-(((1S,3S)-3-((3H-Imidazo[4,5-b]pyridin-2-yl)amino)cyclopentyl)amino)pyridin-3-yl)imidazolidine-2,4-dione] the same measures were over 40000 nM, 8.19 µM and 7.8 nM.
Turning to `O=c1ccccn1-c1ccc(N[C@H]2CC[C@H](Nc3nc4ccc(OC(F)F)cc4o3)C2)nc1` [Example 85, 6′-(((1S,3S)-3-((6-(Difluoromethoxy)benzo[d]oxazol-2-yl)amino)cyclopentyl)amino)-2H-[1,3′-bipyridin]-2-one], inhibition against PCSK9 was half-maximal at 14.6 nM (IC50).
Turning to `CP(C)(=O)c1cnc2[nH]c(N[C@H]3CC[C@H](Nc4ccc(-n5ccccc5=O)cn4)C3)nc2c1` [Example 58, 6′-(((1S,3S)-3-((6-(Dimethylphosphoryl)-3H-imidazo[4,5-b]pyridin-2-yl)amino)cyclopentyl)amino)-2H-[1,3′-bipyridin]-2-one], the IC50 was over 40000 nM in experiment [1] and 220 nM at PCSK9.
With `Cc1ncc(-c2ccc(=O)n(-c3ccc(N[C@H]4CC[C@H](Nc5nc6cccnc6[nH]5)C4)nc3)c2)cn1` [Example 53, 6′-(((1S,3S)-3-((3H-Imidazo[4,5-b]pyridin-2-yl)amino)cyclopentyl)amino)-5-(2-methylpyrimidin-5-yl)-2H-[1,3′-bipyridin]-2-one], the figures for the concentration for half-maximal inhibition (IC50) (in experiment [1]; in experiment [2]; at PCSK9) were over 40000 nM, 3.86 µM and 19 nM, respectively.
As for `Fc1cccc(OC(F)(F)F)c1-c1ccc(N[C@H]2CC[C@H](Nc3nc4cccnc4[nH]3)C2)nc1` [Example 70, (1S,3S)—N^1-(5-(2-Fluoro-6-(trifluoromethoxy)phenyl)pyridin-2-yl)-N^3-(3H-imidazo[4,5-b]pyridin-2-yl)cyclopentane-1,3-diamine], the half-inhibitory concentration (IC50) in experiment [2] was over 10 µM; against PCSK9, 24.4 nM.
In the case of `COc1ccnc2[nH]c(N[C@H]3CC[C@H](Nc4ccc(-n5ccccc5=O)cn4)C3)nc12` [Example 27, 6′-(((1S,3S)-3-((7-Methoxy-3H-imidazo[4,5-b]pyridin-2-yl)amino)cyclopentyl)amino)-2H-[1,3′-bipyridin]-2-one], the IC50 in experiment [1] was over 40000 nM; in experiment [2], 2.49 µM; on PCSK9, 49 nM.
Consider `Fc1cccc(F)c1-c1ccc(N[C@H]2CC[C@H](Nc3nc4cccnc4[nH]3)C2)nc1` [Example 68, (1S,3S)—N^1-(5-(2,6-Difluorophenyl)pyridin-2-yl)-N^3-(3H-imidazo[4,5-b]pyridin-2-yl)cyclopentane-1,3-diamine], for which the IC50 in experiment [1] is 6550 nM; in experiment [2], over 10 µM.
As to `Fc1cccnc1-c1ccc(N[C@H]2CC[C@H](Nc3nc4cccnc4[nH]3)C2)nc1` [Example 30, (1S,3S)—N^1-(3-Fluoro-[2,3′-bipyridin]-6′-yl)-N^3-(3H-imidazo[4,5-b]pyridin-2-yl)cyclopentane-1,3-diamine], the IC50 in experiment [1] is 3150 nM; in experiment [2] it was over 10 µM; against PCSK9, 34.5 nM.
For `O=c1cccnn1-c1cnc(N[C@H]2CC[C@H](Nc3nc4cccnc4[nH]3)C2)nc1` [Example 31, 2-(2-(((1S,3S)-3-((3H-Imidazo[4,5-b]pyridin-2-yl)amino)cyclopentyl)amino)pyrimidin-5-yl)pyridazin-3(2H)-one] the same measures were over 40100 nM, over 10 µM and 25.1 nM.
The matching figures for `Fc1ccccc1-c1ccc(N[C@H]2CC[C@H](Nc3nc4cccnc4[nH]3)C2)nc1` [Example 69, (1S,3S)—N^1-(5-(2-Fluorophenyl)pyridin-2-yl)-N^3-(3H-imidazo[4,5-b]pyridin-2-yl)cyclopentane-1,3-diamine]: 1170 nM, over 10 µM and 83 nM.
The matching figures for `O=c1ccccn1-c1ccc(N[C@H]2CC[C@H](Nc3nc4cc(CO)cnc4s3)C2)nc1` [Compound 88]: over 40100 nM, over 10 µM and 9.9 nM.
`Fc1cccc(OC(F)F)c1-c1ccc(N[C@H]2CC[C@H](Nc3nc4cccnc4[nH]3)C2)nc1` [Example 32, (1S,3S)—N^1-(5-(2-(Difluoromethoxy)-6-fluorophenyl)pyridin-2-yl)-N^3-(3H-imidazo[4,5-b]pyridin-2-yl)cyclopentane-1,3-diamine]: the IC50 in experiment [1] is 2220 nM; in experiment [2], over 10 µM; at PCSK9 it was 21 nM.
In the case of `Cn1c(=O)n(-c2ccc(N[C@H]3CC[C@H](Nc4nc5cccnc5[nH]4)C3)nc2)c2ncccc21` [Example 45, 3-(6-(((1S,3S)-3-((3H-Imidazo[4,5-b]pyridin-2-yl)amino)cyclopentyl)amino)pyridin-3-yl)-1-methyl-1,3-dihydro-2H-imidazo[4,5-b]pyridin-2-one], the values for the half-maximal inhibitory concentration (IC50) in experiment [1] and in experiment [2] were over 40000 nM and over 10 µM, respectively.
For `O=c1ccc2ccccc2n1-c1ccc(N[C@H]2CC[C@H](Nc3nc4cccnc4[nH]3)C2)nc1` [Example 33, 1-(6-(((1S,3S)-3-((3H-Imidazo[4,5-b]pyridin-2-yl)amino)cyclopentyl)amino)pyridin-3-yl)quinolin-2(1H)-one] the same measures were over 40000 nM and over 10 µM.

Values taken from patent US20240239767A1 (AstraZeneca AB, priority 2022, published 2024).
